Experimental data as given in PMC8264259, “A Novel Ruthenium(II) Complex With Lapachol Induces G2/M Phase Arrest Through Aurora-B Kinase Down-Regulation and ROS-Mediated Apoptosis in Human Prostate Adenocarcinoma Cells” (Frontiers in Oncology, 2021).
Structures can show the parent of a compound that is named as a salt.

Tests used:
[1] = system: DU-145 (human prostate adenocarcinoma); test: Alamar blue cytotoxicity assay, DU-145; format: cell-based; conditions: for IC50: DU-145, Alamar blue, 24-h incubation, mean ± S.E.M.
Text: (§1) Human lung carcinoma (A549, ATCC® CCL-185™), human hepatocellular carcinoma (HepG2, ATCC® HB-8065™), and human breast adenocarcinoma (MDA-MB-231, ATCC® HTB-26™) were obtained from American Type Cell Collection (ATCC). Human melanoma (A-375, BCRJ-0278), Human colorectal adenocarcinoma (Caco-2, BCRJ 0059), human prostate adenocarcinoma (DU-145, BCRJ-0078, and PC-3, BCRJ-0269), human mouth fibroblast (FGH, BCRJ-0089), and human prostate epithelial cells (PNT-2, BCRJ-0366) were obtained from Rio de Janeiro Cells Bank (BCRJ). The cells A549, A-375, Caco-2, DU-145, HepG2, MDA-MB-231, and FGH were cultured in Dulbecco’s Modified Eagle’s Medium (DMEM, Gibco-Invitrogen®), PC-3 and PNT-2 cells were grown in Roswell Park Memorial Institute Medium (RPMI-1640, Gibco-Invitrogen®). Both mediums were supplemented according to the needs of each lineage, as recommended by its cell banks with 2 mM L-glutamine (Gibco-Invitrogen®), 10% or 20% fetal bovine serum (Gibco-Invitrogen®), 1% antibiotic-antimycotic solution (5 mg/ml penicillin, 5 mg/ml streptomycin, and 10 mg/ml neomycin, Gibco-Invitrogen®), and 3.7 g/L of NaHCO3 (Sigma-Aldrich). All cell lines were cultured in flasks at 37°C in 5% CO2 and 96% of relative humidity according to the procedures proposed by ([31]), and a mycoplasma stain kit (Sigma-Aldrich) was used to confirm the use of cells devoid of contamination. The assays were conducted between the third and the seventh-cell passage with sub-cultures every 3 to 4 days to maintain exponential growth. The cell viability was checked using the trypan blue dye exclusion assay for all experiments where over 95% of the cells were viable at the beginning of the tests.
(§2) The in vitro antiproliferative activity was quantified using the Alamar blue® assay, according to the method reported by ([32]). Cells were seeded in 96-well plates for all experiments (1.5 × 10^4 cells/well). After 24 h, the complexes were dissolved in DMSO and added to each well and incubated for 24 h. Dilutions of the complexes were prepared to obtain concentrations ranging from 0.3 to 100 μM. […] DMSO (0.1% v/v) was used as the vehicle control. Following 24 h of incubation, 50 μl of Alamar blue® (resazurin at 0.01% w/v, Sigma-Aldrich) was added to each well, and the plates were incubated, at 37°C, in the dark. Fluorescence reading was performed in a Synergy H1 Fluorescence Spectrophotometer (BioTek®), using excitation and emission filters at wavelengths of 560 and 590 nm, respectively. The fluorescence intensity was measured in arbitrary fluorescence units (AFU) and the AFU of untreated cells (CTL) was considered 100%. The cytotoxic effects of the compounds were estimated in terms of cell proliferation inhibition (%) and expressed as half-maximal inhibitory concentration (IC50). The cell proliferation inhibition percentage of cells exposed to treatments was calculated following: % Inhibition = 100 − (AFU of treated well/AFU of control well) × 100). The IC50 values were calculated from the cell proliferation inhibition percentage by nonlinear regression method using CompusSyn® Software.

[2] = system: PNT-2 (human prostate epithelial cells); test: Alamar blue cytotoxicity assay, PNT-2 non-cancer cells; format: cell-based; conditions: mean ± S.E.M.
Text: as §1, §2

[3] = system: MDA-MB-231 (human breast adenocarcinoma); test: Alamar blue cytotoxicity assay, MDA-MB-231; format: cell-based; conditions: for IC50: MDA-MB-231, Alamar blue, 24-h incubation, mean ± S.E.M.
Text: as §1, §2

[4] = system: A549 (human lung carcinoma); test: Alamar blue cytotoxicity assay, A549; format: cell-based; conditions: for IC50: A549, Alamar blue, 24-h incubation, mean ± S.E.M.
Text: as §1, §2

DU-145 cells [5] = test: Clonogenic assay; format: cell-based, human; conditions: 24 h treatment, colonies after 7 days
Protocol: The clonogenic assay was performed in accordance with the guidelines of ([34]). […] DMSO (0.1% v/v) was used as the vehicle control. After 24 h, the cells were washed with PBS (Gibco-Invitrogen®) and harvested by trypsinization. Cells were counted using a Neubauer chamber and replated then on cell culture dishes of 21.5 cm^2 in a density of 200 cells per culture dish for each treatment in triplicate. After 7 days, cells were fixed in ice-cold methanol: acetic acid: distilled water (1:1:8), air-dried, and stained with crystal violet (0.5% w/v, Sigma-Aldrich) for 20 min. Colonies with at least 50 cells were counted. Plating efficiency (PE) of DU-145 cells was calculated by the ratio of the number of colonies observed after 7 days of incubation to the number of cells seeded (two hundred). The average of colonies in control was considered as 100%, and the number of colonies that arise after treatment of cells is called the surviving fraction (SF), obtained by:
SF = Numberofcoloniescountedineachtreatment/Numberofcoloniescountedincontrol x PE × 100

DU-145 MCTSs = test: 3D multicellular tumor spheroids (MCTSs) culture; format: cell-based, human; conditions: 3D spheroids, 24 h, Alamar blue; read-out: IC50 against the DU-145 MCTSs
Protocol: Multicellular tumor spheroids (MCTSs) were obtained according to the method reported by ([33]). Briefly, 200 μl of a solution of DU-145 cells (2.0 × 10^3 cells/well) were inserted in agarose-coated 96-well plates (1.5% w/v) and cultured in complete medium plus 3% Matrigel® (Corning). DU-145-MCTSs with stable structures had formed after five days. […] Negative control received the vehicle (DMSO 0.1% v/v) that was used for diluting the compounds tested. Finally, the MCTS proliferation inhibition (%) and IC50 were determined by Alamar blue® assay as described above. To investigate morphological changes other MCTSs were treated with 0.25, 0.5, 1.0, 1.5, and 2.0 μM of complex (2) and examined for 7 days. Spheroid integrity and diameter of MCTSs were analyzed by phase-contrast microscopy (Inverted Trinocular Microscope Opton TNB-O5T-PL) using AxioVision LE software (Carl Zeiss, Germany).

DU-145 cells [6] = test: Annexin-V/PI staining assay (flow cytometry); format: cell-based, human; conditions: DU-145, 25 μM (~IC50), 24 h
Protocol: The measurement of cell death was performed by the guidelines of ([35]). Detection of apoptotic/necrotic cells was determined by flow cytometry using the Alexa Fluor® 488 Annexin V/PI (Thermo Fischer Scientific), and the analyses were performed according to the manufacturer’s instructions. […] DMSO (0.1% v/v) was used as the vehicle control. Following 24 h of incubation, the cells were collected with Accutase® (Gibco-Invitrogen®), washed with PBS and resuspended in 200 μl of cold annexin-binding buffer. Next, 10 μl of Alexa Fluor® was added to Annexin V (50 μl/ml) staining buffer, and the mixture was incubated in the dark at 4°C for 15 min. Previously, the analyses, 100 μl of PI (2 μg/ml) was added, and then, the fluorescence was measured by flow cytometry in a FACSCanto flow cytometer (BD Biosciences, USA) using the Diva software. Ten thousand events were evaluated per experiment, and cellular debris was omitted from the analysis.

[7] = system: HepG2 (human hepatocellular carcinoma); test: Alamar blue cytotoxicity assay, HepG2; format: cell-based; conditions: for IC50: HepG2, Alamar blue, 24-h incubation, mean ± S.E.M.
Text: as §1, §2

[8] = system: A-375 (human malignant melanoma); test: Alamar blue cytotoxicity assay, A-375; format: cell-based; conditions: for IC50: A-375, Alamar blue, 24-h incubation, mean ± S.E.M.
Text: as §1, §2

[9] = system: FGH (human mouth fibroblast); test: Alamar blue cytotoxicity assay, FGH non-cancer cells; format: cell-based; conditions: 24-h incubation, mean ± S.E.M.
Text: as §1, §2

[10] = system: PC-3 (human prostate adenocarcinoma); test: Alamar blue cytotoxicity assay, PC-3; format: cell-based; conditions: for IC50: PC-3, Alamar blue, 24-h incubation, mean ± S.E.M.
Text: as §1, §2

[11] = system: Caco-2 (human colorectal adenocarcinoma); test: Alamar blue cytotoxicity assay, Caco-2; format: cell-based; conditions: for IC50: Homo sapiens, Caco-2, Alamar blue, 24-h incubation, mean ± S.E.M.
Text: as §1, §2

[12] = parameters: method as in PMID 30776556; conditions: previously tested, not tested in the present work; read-out: IC50 (weak cytotoxicity); cited from earlier work
[13] = Homo sapiens, PNT2, 24-h incubation

`N.N.[Cl][Pt][Cl]` [CIS, Cisplatin, reference compound] gave an IC50 [1] of 24.3 ± 1.3 µM, an IC50 ([2]; 24-h incubation) of 9.5 ± 0.3 µM and an IC50 [3] of 22.1 ± 1.7 µM. The IC50 [4] was 11.9 ± 0.6 µM, the “survival fraction (SF)” value (DU-145 cells [5]; DU-145, 25 μM) was 69.1% and the IC50 (DU-145 MCTSs) was 62.6 µM. The “population of apoptotic cells” value (DU-145 cells [6]) was 19.5%, the IC50 [7] was 14.1 ± 0.5 µM and the IC50 [8] was 16.5 ± 2.3 µM. It also gave an IC50 [9] of 11.4 ± 0.5 µM and an IC50 [10] of 10.8 ± 1.1 µM.
For `COc1cccc2c1C(=O)c1c(O)c3c(c(O)c1C2=O)C[C@@](O)(C(=O)CO)C[C@@H]3O[C@H]1C[C@H](N)[C@H](O)[C@H](C)O1` [DXR, doxorubicin hydrochloride, reference compound], the IC50 ([1]; Homo sapiens) was 2.3 ± 0.5 µM, the “Selectivity index (SI)” value ([1]; SI = IC50[FGH]/IC50[DU-145]) was 1.1 and the “Selectivity index (SI)” value ([1]; SI = IC50[PNT-2]/IC50[DU-145]) was 1.4. For the same molecule, the IC50 [2, 13] was 3.2 ± 0.5 µM, the IC50 [11] was 2.1 ± 0.8 µM and the “Selectivity index (SI)” value ([11]; SI = IC50[FGH]/IC50[Caco-2]) was 1.2. For the same molecule, the “Selectivity index (SI)” value ([11]; SI = IC50[PNT-2]/IC50[Caco-2]) was 1.5, the IC50 ([3]; Homo sapiens) was 2.1 ± 0.7 µM and the “Selectivity index (SI)” value ([3]; SI = IC50[FGH]/IC50[MDA-MB-231]) was 1.2. The “Selectivity index (SI)” value ([3]; SI = IC50[PNT-2]/IC50[MDA-MB-231]) was 1.5, the IC50 ([4]; Homo sapiens) was 1.9 ± 0.4 µM and the “Selectivity index (SI)” value ([4]; SI = IC50[FGH]/IC50[A549]) was 1.4. The “Selectivity index (SI)” value ([4]; SI = IC50[PNT-2]/IC50[A549]) was 1.7, the “survival fraction (SF)” value (DU-145 cells [5]; DU-145, 2.5 μM) was 18.7% and the IC50 ([7]; Homo sapiens) was 2.4 ± 0.8 µM. The “Selectivity index (SI)” value ([7]; SI = IC50[FGH]/IC50[HepG2]) was 1.1, the “Selectivity index (SI)” value ([7]; SI = IC50[PNT-2]/IC50[HepG2]) was 1.3 and the IC50 ([8]; Homo sapiens) was 3.7 ± 0.6 µM. For the same molecule, the “Selectivity index (SI)” value ([8]; SI = IC50[FGH]/IC50[A-375]) was 0.7, the “Selectivity index (SI)” value ([8]; SI = IC50[PNT-2]/IC50[A-375]) was 0.9 and the IC50 ([9]; Homo sapiens, Fibroblast) was 2.6 ± 0.6 µM. The IC50 ([10]; Homo sapiens) was 2.6 ± 0.3 µM, the “Selectivity index (SI)” value ([10]; SI = IC50[FGH]/IC50[PC-3]) was 1.0 and the “Selectivity index (SI)” value ([10]; SI = IC50[PNT-2]/IC50[PC-3]) was 1.2.
`CC(C)=CCC1=C(O)C(=O)c2ccccc2C1=O` [Lp, 2-hydroxy-3-(3-methylbut-2-en-1-yl)naphthalene-1,4-dione, reference compound] gave an IC50 ([1]; Homo sapiens) greater than 100 µM, an IC50 [2, 13] greater than 100 µM and an IC50 [11] greater than 100 µM. For the same molecule, the IC50 ([3]; Homo sapiens) was greater than 100 µM, the IC50 ([4]; Homo sapiens) was greater than 100 µM and the IC50 ([7]; Homo sapiens) was greater than 100 µM. The IC50 ([8]; Homo sapiens) was greater than 100 µM, the IC50 ([9]; Homo sapiens, Fibroblast) was greater than 100 µM and the IC50 ([10]; Homo sapiens) was greater than 100 µM.
For `[Cl][Ru][Cl].c1ccc(-c2ccccn2)nc1.c1ccc(P(CP(c2ccccc2)c2ccccc2)c2ccccc2)cc1` [cis-[RuCl2(dppm)(bipy)]], the IC50 [12] is given as greater than 100 µM.
For `[Cl][Ru][Cl].c1ccc(P(CP(c2ccccc2)c2ccccc2)c2ccccc2)cc1.c1cnc2c(c1)ccc1cccnc12` [cis-[RuCl2(dppm)(phen)]], the IC50 [12] is listed as greater than 100 µM.
